Reference: patent US5516647A, “Compounds useful as alkaline phosphatase inhibitors and therapeutic agents” (Abbott Laboratories, priority 1993, dated 1996)
Entries after “also recorded” stand apart in the source; their conditions may differ. Read-outs that look alike come from different tables or passages of the source.

Columns and labels:
[1] = biological target: T1, human intestinal AP (Homo sapiens, UniProt P09923); assay: Inhibition of human intestinal AP isoenzyme (p-nitrophenylphosphate hydrolysis); type: biochemical; conditions: for order of effectiveness, intestinal isoenzymes / effectiveness against intestinal isoenzymes: FIG. 6; for inhibition of the intestinal isoenzymes: FIG. 7, at the concentration compared with E. coli AP; for times as potent/effective as L-phenylalanine, intestinal isoenzymes: ratio to L-phenylalanine; for times as potent/effective as levamisole, intestinal isoenzymes: ratio to levamisole
T1 construct: purchased Aalto Scientific, Ltd., Vista, Calif
T1 sequence (P09923 20-503 limits assumed): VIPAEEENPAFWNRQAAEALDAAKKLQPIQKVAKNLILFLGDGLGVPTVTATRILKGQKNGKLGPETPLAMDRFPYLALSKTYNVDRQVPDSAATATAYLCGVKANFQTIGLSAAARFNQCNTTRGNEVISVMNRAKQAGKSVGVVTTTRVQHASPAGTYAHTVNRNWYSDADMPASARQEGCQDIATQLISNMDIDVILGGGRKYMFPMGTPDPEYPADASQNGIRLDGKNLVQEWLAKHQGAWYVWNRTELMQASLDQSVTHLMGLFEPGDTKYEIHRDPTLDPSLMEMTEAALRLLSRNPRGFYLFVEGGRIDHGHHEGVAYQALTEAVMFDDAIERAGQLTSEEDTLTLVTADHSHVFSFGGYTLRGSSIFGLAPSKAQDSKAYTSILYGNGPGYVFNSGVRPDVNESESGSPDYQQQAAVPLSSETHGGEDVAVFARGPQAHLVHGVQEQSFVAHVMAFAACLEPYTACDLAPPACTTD
Protocol: (§1) Human intestinal AP was obtained from Aalto Scientific, Ltd. Vista, Calif. […] L-Phenylalanine was obtained from Aldrich Chemical Company, Milwaukee, Wis. Human bone AP was isolated from human osteosarcoma-derived cell line, Saos-2 (Catalog No. HTB 85, The American Type Culture Collection, 12301 Parklawn Drive, Rockville, Md.) by butanol extraction as described by J. R. Farley et al., (1989) Clin Chem. 35, 223-229.
(§2) AP activity was determined with VP Bichromatic Analyzer (Abbott Laboratories) by monitoring the appearance of the yellow product, p-nitrophenol, produced as a result of the enzyme catalyzed hydrolysis of the colorless substrate, p-nitrophenylphosphate. The stock preparations of E. coli and human AP were diluted to 0.3-1.0 U/ml with 0.1M Tris buffer, pH 8.0, containing 1 mM magnesium chloride, 0.1 mM zinc chloride and 5 mg/ml bovine serum albumin. […] The diluted enzyme solutions were prepared fresh just before the start of the experiments. The final assay conditions for the human and E. coli AP were as follows:
(§3) Human AP Isoenzymes: p-Nitrophenylphosphate (2.2 mmol/liter); Diethanolamine (500 mmol/liter); Magnesium chloride (1 mmol/liter); Zinc chloride (0.1 mmol/liter). The reaction pH was 10.2 at a reaction temperature of 37° C. and volume fraction (sample/total) of 0.033 (1:30).
(§4) The diluted enzymes and inhibitors at appropriate concentrations (as shown in the Figures) were hand pipetted into numbered cuvettes in the multicuvette assembly of the VP Bichromatic Analyzer. Once the assay was started, the analyzer dispensed an appropriate amount of the buffered solution of p-nitrophenylphosphate containing magnesium and zinc chlorides into each cuvette. The multicuvette assembly rotated and allowed measurement of absorbance changes at every two minutes intervals. A 415 nm-450 nm filter was used to assay AP activity. All enzyme activity measurements were done at least in duplicate and the average value was used in the data analyses.
(§5) The I50 value for APl-3 is similarly calculated from its dose response curve.

[2] = biological target: T2, human placental AP (Homo sapiens, UniProt P05187); assay: Inhibition of human placental AP isoenzyme (p-nitrophenylphosphate hydrolysis); type: biochemical; conditions: for effectiveness against placental isoenzymes / order of effectiveness, placental isoenzymes: FIG. 5; for inhibition of the placental isoenzymes: FIG. 7, at the concentration compared with E. coli AP; for times more potent than L-phenylalanine, placental isoenzymes: ratio to L-phenylalanine; for times more potent than levamisole, placental isoenzymes: ratio to levamisole
T2 construct: purchased Sigma Chemical Co., St. Louis, Mo
Protocol: as §1, §2, §3, §4, §5

[3] = biological target: T3, human bone AP (Homo sapiens, UniProt P05186); assay: Inhibition of human bone AP isoenzyme (p-nitrophenylphosphate hydrolysis); type: biochemical; conditions: for order of potency as inhibitors of bone AP: FIG. 4; for IC50: read-out: [I]50 Bone AP: concentration of inhibitor that gives 50% inhibition of enzyme activity; for times more active than levamisole, bone isoenzymes: ratio to levamisole
T3 construct: Human bone AP was isolated from human osteosarcoma-derived cell line, Saos-2; host or cells: Saos-2 (human osteosarcoma-derived cell line, ATCC), butanol extraction
T3 sequence (P05186 18-502 limits assumed): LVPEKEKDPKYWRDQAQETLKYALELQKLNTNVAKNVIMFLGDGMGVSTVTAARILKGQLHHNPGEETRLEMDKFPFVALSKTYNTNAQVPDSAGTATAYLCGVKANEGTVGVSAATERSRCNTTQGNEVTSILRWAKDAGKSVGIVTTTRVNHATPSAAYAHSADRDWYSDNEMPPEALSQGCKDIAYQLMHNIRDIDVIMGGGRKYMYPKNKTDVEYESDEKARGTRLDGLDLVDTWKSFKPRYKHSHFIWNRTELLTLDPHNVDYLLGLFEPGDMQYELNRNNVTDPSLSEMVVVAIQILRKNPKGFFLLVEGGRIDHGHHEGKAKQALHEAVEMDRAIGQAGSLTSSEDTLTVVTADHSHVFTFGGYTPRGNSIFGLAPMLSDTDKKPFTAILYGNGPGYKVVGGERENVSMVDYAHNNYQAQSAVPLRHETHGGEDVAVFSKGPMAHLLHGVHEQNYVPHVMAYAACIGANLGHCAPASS
Protocol: as §1, §2, §3, §4, §5

[4] = tested on: tissue-nonspecific AP; conditions: background art; cited from earlier work
[5] = tested on: AP; conditions: cited from earlier work
[6] = tested on: human AP; assay: Selectivity for human AP versus E. coli AP; type: biochemical; conditions: FIG. 7
Protocol: as §2, §3
E. coli AP: P-Nitrophenylphosphate (1 mmol/liter); Tris-chloride (100 mmol/liter); Magnesium chloride (1 mmol/liter); and Zinc chloride (0.1 mmol/liter). […]
The diluted enzymes and inhibitors at appropriate concentrations (as shown in the Figures) were hand pipetted into numbered cuvettes in the multicuvette assembly of the VP Bichromatic Analyzer. […] The multicuvette assembly rotated and allowed measurement of absorbance changes at every two minutes intervals. […]

[7] = biological target: T4, calf intestinal AP (Bos taurus, UniProt P19111); assay: Inhibition of calf intestinal AP; type: biochemical; conditions: for inhibition of calf intestinal AP versus E. coli AP: compared with E. coli AP; for inhibition of calf intestinal AP versus L-phenylalanine and levamisole: compared with L-phenylalanine and levamisole; for inhibition of calf intestinal AP versus human intestinal AP: compared with human intestinal AP
[8] = tested on: E. coli AP; assay: Inhibition of (altered) E. coli AP (p-nitrophenylphosphate hydrolysis); type: biochemical; conditions: FIG. 7, at the concentration inhibiting human isoenzymes, high concentrations
Protocol: E. coli AP (APKJ3 and APKJ4) were obtained according to the methods disclosed in U.S. patent Ser. No. 08/031,165 and its CIP. APKJ4 is an E. coli AP in which the lysine at its position 177 has been replaced with cysteine.
as §2
E. coli AP: P-Nitrophenylphosphate (1 mmol/liter); Tris-chloride (100 mmol/liter); Magnesium chloride (1 mmol/liter); and Zinc chloride (0.1 mmol/liter). The reaction pH was 8.0 at a reaction temperature of 37° C. and volume fraction (sample/total) of 0.033 (1:30).
as §4

[9] = biological target: T4, calf intestinal AP; conditions: used in an immunoassay; cited from earlier work
[10] = tested on: placental and intestinal isoenzymes; conditions: background art; cited from earlier work
[11] = pH 10.2, 37° C., p-nitrophenylphosphate 2.2 mmol/liter, from dose response curves
[12] = pH 10.2, 37° C., p-nitrophenylphosphate 2.2 mmol/liter, from dose response curves, read-out: [I]50 Intestinal AP: concentration of inhibitor that gives 50% inhibition of enzyme activity
[13] = pH 10.2, 37° C., p-nitrophenylphosphate 2.2 mmol/liter, from dose response curves, read-out: [I]50 Placental AP: concentration of inhibitor that gives 50% inhibition of enzyme activity

T4 sequence (P19111 20-506): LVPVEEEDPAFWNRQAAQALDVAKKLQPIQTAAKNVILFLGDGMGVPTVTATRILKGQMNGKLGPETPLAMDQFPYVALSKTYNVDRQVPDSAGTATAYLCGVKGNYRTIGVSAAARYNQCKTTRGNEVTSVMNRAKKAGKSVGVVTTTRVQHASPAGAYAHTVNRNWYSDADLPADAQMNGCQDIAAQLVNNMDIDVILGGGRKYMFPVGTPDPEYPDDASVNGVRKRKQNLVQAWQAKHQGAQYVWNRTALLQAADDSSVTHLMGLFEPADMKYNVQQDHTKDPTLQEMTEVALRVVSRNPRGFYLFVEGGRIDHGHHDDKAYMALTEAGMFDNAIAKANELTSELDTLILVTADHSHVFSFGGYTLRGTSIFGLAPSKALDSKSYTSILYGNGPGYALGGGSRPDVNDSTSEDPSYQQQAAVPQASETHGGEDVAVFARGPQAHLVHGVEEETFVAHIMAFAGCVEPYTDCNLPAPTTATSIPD
T2 sequence (P05187 23-506 limits assumed): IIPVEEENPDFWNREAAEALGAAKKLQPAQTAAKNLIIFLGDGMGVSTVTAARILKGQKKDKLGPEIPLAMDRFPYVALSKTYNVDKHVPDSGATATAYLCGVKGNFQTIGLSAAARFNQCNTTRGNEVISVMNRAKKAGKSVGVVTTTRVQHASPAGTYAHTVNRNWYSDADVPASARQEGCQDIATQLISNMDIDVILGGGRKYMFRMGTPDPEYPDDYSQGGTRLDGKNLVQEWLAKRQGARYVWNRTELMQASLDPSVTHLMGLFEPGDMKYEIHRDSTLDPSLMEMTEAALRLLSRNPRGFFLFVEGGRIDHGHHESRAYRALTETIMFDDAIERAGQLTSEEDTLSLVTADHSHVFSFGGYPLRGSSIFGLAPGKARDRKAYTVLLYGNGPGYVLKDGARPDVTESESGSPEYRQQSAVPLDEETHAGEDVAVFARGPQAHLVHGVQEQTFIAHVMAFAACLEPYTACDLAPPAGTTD

Row | Compound | order of effectiveness, intestinal isoenzymes [1] | effectiveness against placental isoenzymes [2] | order of effectiveness, placental isoenzymes [2] | sensitivity of tissue-nonspecific AP to inhibitor [4] | effectiveness against intestinal isoenzymes [1] | inhibition of the intestinal isoenzymes [1] | IC50 [1, 12] [µM] | times as potent/effective as L-phenylalanine, intestinal isoenzymes [1] [times] | times as potent/effective as levamisole, intestinal isoenzymes [1] [times] | selectivity for human AP compared to levamisole [6] | inhibition of the placental isoenzymes [2] [%] | IC50 [2, 13] [µM] | times more potent than L-phenylalanine, placental isoenzymes [2] [times] | times more potent than levamisole, placental isoenzymes [2] [times] | order of potency as inhibitors of bone AP [3] | IC50 [3, 11] [µM] | times more active than levamisole, bone isoenzymes [3] [times] | inhibition of calf intestinal AP versus E. coli AP [7] | inhibition of calf intestinal AP versus L-phenylalanine and levamisole [7] | inhibition of the E. coli AP [8] [%] | also measured
1 | N[C@@H](Cc1ccccc1)C(=O)O [L--Phe, L-phenylalanine, reference compound] | APl-2>APl-1>L-phenylalanine>levamisole | a lot less effective compared to compounds APl-1 and APl-2 | APl-2>APl-1>levamisole>L-phenylalanine | not sensitive; also recorded: does not inhibit tissue-nonspecific AP isoenzymes |  |  |  |  |  |  |  |  |  |  |  |  |  |  |  |  | IC50 [1]: 4500 µM; IC50 [2]: 3000 µM; inhibition of bone isoenzymes [3]: does not inhibit bone isoenzymes; also recorded: activation of the bone isoenzymes; [I]50 Bone AP: concentration of inhibitor that gives 50% inhibition of enzyme activity [3, 11]: Activation; activation at 10000 µM ([3]; read-out: increase in activity of bone AP): ≤ 40%
2 | c1ccc([C@@H]2CN3CCSC3=N2)cc1 [D- counterpart] |  |  |  |  |  |  |  |  |  |  |  |  |  |  |  |  |  |  |  |  | AP inhibition by D- counterpart of levamisole [5]: not an AP inhibitor
3 | C1=CN2CC(c3ccc(Oc4ccccc4)cc3)N=C2S1 (racemic) [API-2, (dl)-5,6-dihydro-6-(4-phenoxyphenyl)-imidazo-[1,2-b]-thiazole] | APl-2>APl-1>L-phenylalanine>levamisole |  | APl-2>APl-1>levamisole>L-phenylalanine |  | much more effective inhibitors than levamisole and L-phenylalanine | 50-60% | 200 | 23 | 60 | much more selective inhibitors of human AP compared to levamisole | 90 | 26 | 115 | 85 | APl-2>APl-1>levamisole | 0.6 | 100 | inhibited calf intestinal AP more than E. coli AP | more efficient than L-phenylalanine and levamisole at inhibiting calf intestinal AP | ≤ 10 | times as effective as APl-1, intestinal isoenzymes ([1]; ratio to APl-1): 5 times; times more potent than compound APl-1, placental isoenzymes ([2]; ratio to APl-1): about 6 times; inhibition of bone isoenzymes ([3]; listed as APl-2): nearly complete inhibition at much lower concentrations compared to levamisole; inhibition of calf intestinal AP versus human intestinal AP ([7]; listed as APl-2): more effective in inhibiting human intestinal AP than calf intestinal AP; also recorded: calf intestinal AP is more resistant to inhibition
4 | c1ccc(Oc2ccc(C3CN4CCSC4=N3)cc2)cc1 (racemic) [API-1, (dl)-2,3,5,6-tetrahydro-6-(4-phenoxyphenyl)-imidazo[2,1-b]-thiazole] | APl-2>APl-1>L-phenylalanine>levamisole |  | APl-2>APl-1>levamisole>L-phenylalanine |  | much more effective inhibitors than levamisole and L-phenylalanine | 50-60% | 1000 | 5 | 12 | much more selective inhibitors of human AP compared to levamisole | 90 | 160 | 19 | 14 | APl-2>APl-1>levamisole | 4 | 15 | inhibited calf intestinal AP more than E. coli AP | more efficient than L-phenylalanine and levamisole at inhibiting calf intestinal AP | ≤ 10 | inhibition of bone isoenzymes ([3]; listed as APl-1): nearly complete inhibition at much lower concentrations compared to levamisole; inhibition of calf intestinal AP versus human intestinal AP ([7]; listed as APl-1): more effective in inhibiting human intestinal AP than calf intestinal AP; also recorded: calf intestinal AP is more resistant to inhibition
5 | c1ccc([C@H]2CN3CCSC3=N2)cc1 [Levamisole, (L-)2,3,5,6-tetrahydro-6-phenylimidazo[1,2-b]thiazole, reference compound] | APl-2>APl-1>L-phenylalanine>levamisole | a lot less effective compared to compounds APl-1 and APl-2 | APl-2>APl-1>levamisole>L-phenylalanine | strongly inhibited |  | 48% | 12000 |  |  |  | 80 | 2200 |  |  |  |  |  |  |  | 65 | effect on specific immuno-signal generated by calf intestinal AP [9]: does not interfere with the specific immuno-signal generated by calf intestinal AP; inhibition of placental and intestinal isoenzymes [10]: only at much higher concentrations
6 | c1ccc(-c2ccc(C3CN4CCSC4=N3)cc2)cc1 (racemic) [API-3, (dl)-2,3,5,6-tetrahydro-6-(biphenyl)-imidazo-[1,2-b]-thiazole] |  |  |  |  |  |  |  |  |  |  |  | 500 |  |  |  |  |  |  |  |  | 
